In ChEMBL document CHEMBL1201862, “PubChem BioAssay data set” (2004):
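The compound was tested at five concentrations on cells cultured in 96-well plates, with a 48-hour exposure period. GI50 is the concentration that inhibits growth by half.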 Activity calls are given as the source filed them. Rule as the data show it: active = GI50 up to about 1.1 µM and inactive = higher.

Legend:
Test in all cases: DTP human tumour cell line panel, 48 h
[1] = tested on: ACHN
[2] = tested on: CAKI-1
[3] = tested on: CCRF-CEM
[4] = tested on: HCC 2998
[5] = tested on: HL-60
[6] = tested on: HOP-62
[7] = tested on: Hs-578T
[8] = tested on: K562
[9] = tested on: MDA-MB-435
[10] = tested on: MDA-N
[11] = tested on: NCI-H460
[12] = tested on: NCI/ADR-RES
[13] = tested on: OVCAR-8
[14] = tested on: RPMI-8226
[15] = tested on: SF-295
[16] = tested on: SK-OV-3
[17] = tested on: TK-10
[18] = tested on: UACC-62
[19] = tested on: SNB-19
[20] = tested on: SR

Compound | GI50 [1] | GI50 [2] | GI50 [3] | GI50 [4] | GI50 [5] | GI50 [6] | GI50 [7] | GI50 [8] | GI50 [9] | GI50 [10] | GI50 [11] | GI50 [12] | GI50 [13] | GI50 [14] | GI50 [15] | GI50 [16] | GI50 [17] | GI50 [18] | GI50 [19] | GI50 [20]
C[N+](C)(CCNc1ccc(NCC[N+](C)(C)Cc2ccc([N+](=O)[O-])cc2)c2c1C(=O)c1c(O)ccc(O)c1C2=O)Cc1ccc([N+](=O)[O-])cc1 | > 50 µM (inactive) | > 50 µM (inactive) | > 50 µM (inactive) | > 50 µM (inactive) | > 50 µM (inactive) | > 50 µM (inactive) | > 50 µM (inactive) | > 5 µM (inactive) | > 50 µM (inactive) | 46.7 µM (inactive) | 3.2 µM (inactive) | > 50 µM (inactive) | > 50 µM (inactive) | > 50 µM (inactive) | 16.7 µM (inactive) | > 50 µM (inactive) | > 50 µM (inactive) | > 50 µM (inactive) | – | –
O=S(=O)(N1CCCCN(S(=O)(=O)C(F)(F)F)CCCN(S(=O)(=O)C(F)(F)F)CCCN(S(=O)(=O)C(F)(F)F)CCCCN(S(=O)(=O)C(F)(F)F)CCCN(S(=O)(=O)C(F)(F)F)CCC1)C(F)(F)F | > 100 µM (inactive) | 37.2 µM (inactive) | > 100 µM (inactive) | > 100 µM (inactive) | > 100 µM (inactive) | 29.7 µM (inactive) | 30.3 µM (inactive) | > 100 µM (inactive) | 53.7 µM (inactive) | > 100 µM (inactive) | 30.9 µM (inactive) | 53.2 µM (inactive) | 36.4 µM (inactive) | – | 22.9 µM (inactive) | > 100 µM (inactive) | 99.5 µM (inactive) | 64.6 µM (inactive) | 35.2 µM (inactive) | –
Oc1ccc2ccccc2c1/N=N\c1cccc2ccccc12 | > 100 µM (inactive) | > 100 µM (inactive) | 58.1 µM (inactive) | – | 52.8 µM (inactive) | > 100 µM (inactive) | > 100 µM (inactive) | > 100 µM (inactive) | > 100 µM (inactive) | > 100 µM (inactive) | – | > 100 µM (inactive) | > 100 µM (inactive) | > 100 µM (inactive) | > 100 µM (inactive) | > 100 µM (inactive) | > 100 µM (inactive) | > 100 µM (inactive) | > 100 µM (inactive) | < 0.01 µM (active)
CO/N=C/c1c(-c2ccc(Cl)cc2)c(/C=N/OC)n2c1sc1ccccc12 | > 100 µM (inactive) | > 100 µM (inactive) | 70.1 µM (inactive) | > 100 µM (inactive) | 32 µM (inactive) | > 100 µM (inactive) | > 100 µM (inactive) | > 100 µM (inactive) | > 100 µM (inactive) | > 100 µM (inactive) | > 100 µM (inactive) | > 100 µM (inactive) | > 100 µM (inactive) | – | > 100 µM (inactive) | > 100 µM (inactive) | > 100 µM (inactive) | > 100 µM (inactive) | > 100 µM (inactive) | –
NS(=O)(=O)c1ccc(NC(=S)N/C=C2\C(=O)Oc3ccccc3C2=O)cc1 | 18.3 µM (inactive) | 19.3 µM (inactive) | 37.9 µM (inactive) | 34.8 µM (inactive) | 21.4 µM (inactive) | 20.8 µM (inactive) | 17.5 µM (inactive) | 35.1 µM (inactive) | 43.5 µM (inactive) | 34.4 µM (inactive) | 39.1 µM (inactive) | 31.4 µM (inactive) | 16.2 µM (inactive) | 30.4 µM (inactive) | 32 µM (inactive) | 26.4 µM (inactive) | 28.2 µM (inactive) | 34.8 µM (inactive) | 19 µM (inactive) | –
CCOC(=O)c1cc2cc(N(C(C)=O)C(C)=O)ccc2s1 | 25.2 µM (inactive) | 39.4 µM (inactive) | 21.9 µM (inactive) | 35.4 µM (inactive) | 13 µM (inactive) | 48.1 µM (inactive) | 16.9 µM (inactive) | 24.7 µM (inactive) | 37 µM (inactive) | 29.2 µM (inactive) | 38.5 µM (inactive) | 33.7 µM (inactive) | 26.8 µM (inactive) | 19.6 µM (inactive) | 30.8 µM (inactive) | 30.4 µM (inactive) | 56.6 µM (inactive) | 31.6 µM (inactive) | 36.9 µM (inactive) | –
Cc1csc2c(=O)n(COCc3ccccc3)c(=O)[nH]c12 | > 100 µM (inactive) | > 100 µM (inactive) | > 100 µM (inactive) | – | > 100 µM (inactive) | 59.8 µM (inactive) | 65 µM (inactive) | > 100 µM (inactive) | > 100 µM (inactive) | > 100 µM (inactive) | > 100 µM (inactive) | > 100 µM (inactive) | > 100 µM (inactive) | > 100 µM (inactive) | > 100 µM (inactive) | – | > 100 µM (inactive) | – | > 100 µM (inactive) | > 100 µM (inactive)
O=c1cc(N2CCCC2)[nH]c(=O)n1-c1ccc(F)cc1 | > 100 µM (inactive) | > 100 µM (inactive) | > 100 µM (inactive) | > 100 µM (inactive) | > 100 µM (inactive) | > 100 µM (inactive) | > 100 µM (inactive) | > 100 µM (inactive) | > 100 µM (inactive) | > 100 µM (inactive) | > 100 µM (inactive) | > 100 µM (inactive) | > 100 µM (inactive) | > 100 µM (inactive) | > 100 µM (inactive) | > 100 µM (inactive) | > 100 µM (inactive) | > 100 µM (inactive) | > 100 µM (inactive) | –
CN(CCCN(C)CCc1ccc(Cl)c(Cl)c1)CCCN1CCCC1 | 7.11 µM (inactive) | 2.37 µM (inactive) | 0.458 µM (active) | 0.305 µM (active) | 1.62 µM (inactive) | 2.86 µM (inactive) | 1.48 µM (inactive) | 0.532 µM (active) | 0.531 µM (active) | 1.31 µM (inactive) | 2.27 µM (inactive) | 6.08 µM (inactive) | 2.82 µM (inactive) | 0.228 µM (active) | 2.28 µM (inactive) | 10.2 µM (inactive) | 2.05 µM (inactive) | 1.93 µM (inactive) | 3.61 µM (inactive) | –
Cc1cc(-c2ccccc2)nc2oc(=O)n(C)c12 | > 100 µM (inactive) | 49.1 µM (inactive) | > 100 µM (inactive) | > 100 µM (inactive) | > 100 µM (inactive) | > 100 µM (inactive) | > 100 µM (inactive) | > 100 µM (inactive) | > 100 µM (inactive) | > 100 µM (inactive) | > 100 µM (inactive) | > 100 µM (inactive) | 90.4 µM (inactive) | – | 39.5 µM (inactive) | > 100 µM (inactive) | 34.4 µM (inactive) | > 100 µM (inactive) | > 100 µM (inactive) | –
COc1cc(/C=C2\C(=O)N(c3cccc(Cl)c3)C(c3ccccc3)S2(=O)=O)cc(OC)c1OC (configuration not stated) | 76.7 µM (inactive) | > 100 µM (inactive) | 18.2 µM (inactive) | > 100 µM (inactive) | 36.4 µM (inactive) | 85.7 µM (inactive) | > 100 µM (inactive) | 22.3 µM (inactive) | 30.5 µM (inactive) | 20.8 µM (inactive) | > 100 µM (inactive) | 38.1 µM (inactive) | 86.7 µM (inactive) | 23.2 µM (inactive) | 36.4 µM (inactive) | 58.1 µM (inactive) | > 100 µM (inactive) | 32.7 µM (inactive) | 23.7 µM (inactive) | –
CCC(C)C(Nc1c2ccccc2nc2c(C(=O)NCCN(C)C)cccc12)C(=O)O (configuration not stated) | 7.94 µM (inactive) | – | 24.3 µM (inactive) | – | – | 13 µM (inactive) | 18.4 µM (inactive) | 21.6 µM (inactive) | 18.1 µM (inactive) | 17.2 µM (inactive) | – | 10.4 µM (inactive) | 4.45 µM (inactive) | 28.8 µM (inactive) | 12.3 µM (inactive) | 22 µM (inactive) | 38.5 µM (inactive) | 15.9 µM (inactive) | 8.28 µM (inactive) | 46.6 µM (inactive)
CC[C@H](C)[C@H](NC(=O)N(CCC#N)CCN(CCN(C(=O)N[C@@H](Cc1ccccc1)C(=O)OC)c1ccccc1)C(=O)N[C@H](C(=O)OC)C(C)C)C(=O)OC | 13.8 µM (inactive) | 19.8 µM (inactive) | 22.8 µM (inactive) | 19 µM (inactive) | 0.879 µM (active) | 20.5 µM (inactive) | 23.7 µM (inactive) | – | 16.6 µM (inactive) | 16.5 µM (inactive) | – | 23.6 µM (inactive) | 22.6 µM (inactive) | 10.7 µM (inactive) | 18.1 µM (inactive) | 20.9 µM (inactive) | 18.3 µM (inactive) | 11.5 µM (inactive) | 15.2 µM (inactive) | –
O=c1[nH]c(=O)c2c([nH]1)[nH]c1ccccc12 | > 100 µM (inactive) | > 100 µM (inactive) | > 100 µM (inactive) | – | > 10 µM (inactive) | > 100 µM (inactive) | > 100 µM (inactive) | > 100 µM (inactive) | > 100 µM (inactive) | > 100 µM (inactive) | – | > 100 µM (inactive) | > 100 µM (inactive) | > 100 µM (inactive) | > 100 µM (inactive) | > 100 µM (inactive) | > 100 µM (inactive) | > 100 µM (inactive) | > 100 µM (inactive) | > 100 µM (inactive)
CC(=O)N1c2cc(/N=N/N(C)C)ccc2NC(=O)CC1C (configuration not stated) | > 100 µM (inactive) | > 100 µM (inactive) | > 100 µM (inactive) | > 100 µM (inactive) | > 100 µM (inactive) | > 100 µM (inactive) | > 100 µM (inactive) | > 100 µM (inactive) | > 100 µM (inactive) | > 100 µM (inactive) | > 100 µM (inactive) | > 100 µM (inactive) | > 100 µM (inactive) | > 100 µM (inactive) | > 100 µM (inactive) | > 100 µM (inactive) | > 100 µM (inactive) | > 100 µM (inactive) | > 100 µM (inactive) | –
